Measurements as given in patent US10357460B2, “Particulate comprising a calcium-containing compound and a sugar alcohol” (Takeda Nycomed AS, priority 2004, dated 2019).

Experiments:
[1] = tested on: pre-menopausal women; settings: 1200 mg of calcium supplements daily, three menstrual cycles; placebo 48%; cited from earlier work
[2] = Compactability of sugar alcohols compressed alone; format: physicochemical; settings: tablets of sugar alcohol alone; FIG. 19
Description: Tablets comprising sorbitol 110 μm, sorbitol 38 μm, isomalt 27 μm, maltitol, mannitol or xylitol were compressed on an instrumented Fette Exacta 1/F single punch tablet press, only maximum compression force on the upper punch was recorded.
Before the compression of each tablet the punch tips and the die bore were lubricated with a 5% suspension of magnesium stearate in acetone. The acetone was allowed to evaporate before compression of the tablet.
The sugar alcohol was weighed, transferred to the die bore and then compressed, see Table 14. Immediately after ejection the tablet was tested for crushing strength.

[3] = Tablet hardness as a function of compression pressure (Schleuniger AT4); format: physicochemical
Description: Sorbitol was lump breaked in a Cone Mill (Quadro U20) and afterwards premixed with Calcium Carbonate in a high-shear mixer (Diosna P250 at low impeller speed and no chopper) for 60 sec.
The premix was granulated on a roller compactor (Gerteis 3W-Polygran), and the compacted granules was then mixed with Povidone K30, Aspartame, D3 Vitamin and Flavour in a high-shear mixer (Diosna P250 at low impeller speed and no chopper) for 60 sec. Finally, lubrication with Magnesium Stearate was done a high-shear mixer (Diosna P250 at low impeller speed and no chopper) for 25 sec.
The roller compaction was based on a setup with knurled rollers and control. The key set up parameters are: Gap Width (GW), Force (F), Roller Speed (RS) and screen size.
Tablet weight was approximately 1,750 mg. All in-process weight and hardness data are obtained using a Schleuniger AT4.

[4] = Crushing strength versus tablet compression force, calcium carbonate/sugar alcohol tablets (Example 11); settings: for tendency of capping: observed during the experiment
Description: In all the below described experiments 1-24 the amount of calcium salt is 76.22% w/w of the final tablet mass, the amount of sugar alcohol is 23.78% w/w, with the exception of experiments 4 and 20 at which the 23.78% w/w of sugar alcohol is replaced with 14.63% w/w of sugar alcohol and 9.15% w/w of Precirol.
The calcium salt and the sugar alcohol are mixed in a total amount of 6 kg in a Fielder high shear mixer. The sugar alcohol is sieved through sieve size 300 μm prior to mixing. The mixing of 6 kg is done twice and the total yield of 12 kg is mixed in a planetary mixer. Thereafter, the mixtures are roller compacted (intra granular sugar alcohol) using the following values for GW, F, RS and screen size. (For the experiments 25-26 the sugar alcohol is admixed by hand after roller compaction has been carried out (extra granular sugar alcohol)).
The compactate is admixed with 0.34% w/w of magnesium stearate.
Compression is carried out on a Fette 1090 using a 18.9 mm×9.4 mm capsule shaped punch design and a theoretical tablet mass of 1683 mg. […] The crushing strength has been measured by use of a Schleuniger Autotest 4 and n=20.

[5] = tested on: treated patients; settings: annual injections of 150.000-300.000 IU; cited from earlier work

## [Ca] [calcium]
[1]
  women with PMS related symptoms: 30%

## OC[C@@H](O)[C@@H](O[C@H]1O[C@H](CO)[C@@H](O)[C@H](O)[C@H]1O)[C@H](O)[C@@H](O)CO [maltitol, Maltitol]
[2]
  compactability (slope of compression force versus crushing strength): very poor compactability
[3]; maltitol versus sorbitol 38 μm as binder, capsule shaped 9.4 mm*18.9 mm, FIG. 7
  binding properties (tablet hardness): does not impart as good binding properties
[4]
  tendency of capping: tendency of capping

## OC[C@@H](O)[C@@H](O)[C@H](O)[C@H](O)CO [mannitol, Mannitol]
[2]
  compactability (slope of compression force versus crushing strength): very poor compactability
[4]
  tendency of capping: tendency of capping

## OC[C@@H](O)[C@@H](O)[C@H](O)[C@@H](O)CO [sorbitol, Sorbitol]
[2]
  compactability (slope of compression force versus crushing strength): best compactability
[3]; decreasing size of sorbitol (110, 38, 11 μm), fixed compression force, 14 mm round tablets, FIG. 4
  tablet hardness: markedly increased tablet hardness
[3]; presence of sorbitol compared to tablets consisting solely of calcium carbonate, FIG. 1
  tablet hardness: increased tablet hardness values

## OC[C@@H](O)[C@H](O)[C@@H](O)CO [xylitol, Xylitol]
[2]
  compactability (slope of compression force versus crushing strength): very poor compactability
[4]
  tendency of capping: tendency of capping

## Glycerol distearat Type I EP [Precirol]
[4]; addition of Precirol to xylitol 34 μm, FIG. 11
  crushing strength: increases the crushing strength

## Isomalt
[2]
  compactability (slope of compression force versus crushing strength): Sorbitol is followed by isomalt

## vitamin D
[5]
  overall fracture rate: significant reduction
  rate of hip fracture: not in the rate of hip fracture
